≈ marks a conversion by molar mass, not a printed value. Read-outs that look alike come from different tables or passages of the source. A value given as a limit tells only on which side of the number the result lay.

One series deals with Pr. rettgeri. Kind of series: MIC by Steers' agar dilution method. To be noted: Providencia rettgeri, MHA; Example 10. Background: In agar dilution the substance is mixed into plates at graded concentrations.
Another series relates to Pr. vulgaris. Description: MIC by Steers' agar dilution method. The conditions noted are these: Proteus vulgaris, MHA, Example 10.
The next series relates to Pr. mirabilis. Kind of series: MIC by Steers' agar dilution method. To be noted: Proteus mirabilis, MHA, Example 10.
Another series deals with Enterob. cloacae. Description: MIC by Steers' agar dilution method. To be noted: MHA; Example 10.
The test system of another series is Shig. sonnei. Kind of series: MIC by Steers' agar dilution method. Format: cell-based. To be noted: Shigella sonnei, MHA; Example 10.
Another series concerns Sal. enteritidis. Kind of series: MIC by Steers' agar dilution method. To be noted: Salmonella enterica, MHA, Example 10.
The test system of another series is B. anthracis. Kind of series: microbe, parasite or virus in culture. Format: cell-based. To be noted: Bacillus anthracis, MHA; Example 10.
For another series, the system named is Shig. dysenteriae. Kind of series: MIC by Steers' agar dilution method. To be noted: Shigella dysenteriae, MHA; Example 10.
The next series concerns Sal. typhosa. Kind of series: MIC by Steers' agar dilution method. It counts as cell-based. To be noted: MHA; Example 10.
The next series has as its system Serr. marcescens. Description: MIC by Steers' agar dilution method. To be noted: Serratia marcescens, MHA; Example 10.
Another series concerns Shig. flexneri. Kind of series: MIC by Steers' agar dilution method. The conditions noted are these: Shigella flexneri, MHA; Example 10. Format: cell-based.
The next series relates to St. faecalis. Kind of series: MIC by Steers' agar dilution method. The conditions noted are these: Enterococcus faecalis, MHA; Example 10.
Another series deals with Kl. pneumoniae. Kind of series: MIC by Steers' agar dilution method. It counts as cell-based. To be noted: Klebsiella pneumoniae, MHA, Example 10.
A further series has as its system E. coli. Kind of series: MIC by Steers' agar dilution method. It counts as cell-based. To be noted: Escherichia coli, MHA, Example 10.
For another series, the system named is S. aureus. Description: MIC by Steers' agar dilution method. Format: cell-based. The conditions noted are these: Staphylococcus aureus, MHA, Example 10.
For another series, the system named is Pr. morganii. Kind of series: MIC by Steers' agar dilution method. To be noted: Morganella morganii, MHA, Example 10.
The next series concerns Ps. aeruginosa. Description: MIC by Steers' agar dilution method. To be noted: Pseudomonas aeruginosa, MHA, Example 10.
The nature of series [1]: Nephrotoxicity test in rabbits. To be noted: comparative test.
The nature of series [2]: pH of aqueous solution of the salt. It counts as physicochemical.

For `O=C(O)CCn1nc2ccc(SCC3=C(C(=O)O)N4C(=O)C(NC(=O)[C@H](O)c5ccccc5)[C@H]4SC3)nn2c1=O` (single isomer, unassigned) [BB-S 527, 7-[D(-)-Mandelamido]-3-[2-(2-carboxyethyl)-2,3-dihydro-s-triazolo-[4,3-b]pyridazin-3-on-6-ylthiomethyl]-3-cephem-4-carboxylic acid], the MIC stood at 0.2 µg/mL (≈ 0.341 µM) with Pr. rettgeri; 0.1 µg/mL (≈ 0.17 µM) against Pr. vulgaris (strain not given (1st of 2)); 12.5 µg/mL (≈ 21.3 µM) against Pr. vulgaris (strain not named (2nd of 2)); 0.2 µg/mL (≈ 0.341 µM) against Pr. mirabilis (strain not given (1st of 2)); 0.1 µg/mL (≈ 0.17 µM) against Pr. mirabilis (strain not named (2nd of 2)); 6.3 µg/mL (≈ 10.7 µM) in the series with Enterob. cloacae. The MIC against Shig. sonnei is 0.1 µg/mL (≈ 0.17 µM); in the series with Sal. enteritidis, 0.05 µg/mL (≈ 0.0852 µM); with B. anthracis it was 0.4 µg/mL (≈ 0.682 µM); against Shig. dysenteriae, 0.025 µg/mL (≈ 0.0426 µM); in the series with Sal. typhosa, 0.1 µg/mL (≈ 0.17 µM); with Serr. marcescens, over 100 µg/mL. The MIC in the series with Shig. flexneri was 50 µg/mL (≈ 85.2 µM); in the series with St. faecalis, over 100 µg/mL; in the series on Kl. pneumoniae (strain not named (1st of 4)), 6.3 µg/mL (≈ 10.7 µM); in the series with Kl. pneumoniae (strain not named (2nd of 4)), 0.2 µg/mL (≈ 0.341 µM); against Kl. pneumoniae (strain not named (3rd of 4)), 0.8 µg/mL (≈ 1.36 µM); in the series on Kl. pneumoniae (strain not named (4th of 4)), 0.4 µg/mL (≈ 0.682 µM). The MIC stood at 12.5 µg/mL (≈ 21.3 µM) with E. coli (ATCC8739, ATCC 8739); 6.3 µg/mL (≈ 10.7 µM) with E. coli (BX-1373, read-out: MIC); 0.4 µg/mL (≈ 0.682 µM) in the series with E. coli (Juhl, read-out: MIC); 0.4 µg/mL (≈ 0.682 µM) in the series with E. coli (NIHJ, read-out: MIC); 0.1 µg/mL (≈ 0.17 µM) in the series with E. coli (strain not named (1st of 3), read-out: MIC); 0.1 µg/mL (≈ 0.17 µM) in the series on E. coli (strain not named (2nd of 3), read-out: MIC). Besides, the MIC in the series on E. coli (strain not named (3rd of 3), read-out: MIC) was 6.3 µg/mL (≈ 10.7 µM); against S. aureus (BX-1633), 3.1 µg/mL (≈ 5.28 µM); in the series with S. aureus (Smith), 1.6 µg/mL (≈ 2.73 µM); with S. aureus (strain not named), 0.4 µg/mL (≈ 0.682 µM); in the series on Pr. morganii (strain not given (1st of 2)), over 100 µg/mL; with Pr. morganii (strain not named (2nd of 2)) it was 0.4 µg/mL (≈ 0.682 µM). In addition, the MIC with Ps. aeruginosa (strain not given (1st of 2)) and in the series with Ps. aeruginosa (strain not named (2nd of 2)) was over 100 µg/mL in each case.
As for `O=C(Cc1cccs1)N[C@@H]1C(=O)N2C(C(=O)[O-])=C(C[n+]3ccccc3)CS[C@H]12` [cephaloridine, reference compound], the Nephrotoxicity entry in series [1] is reported as “severe nephrotoxicity”.
As for `O=C(O)Cn1nc2ccc(SCC3=C(C(=O)O)N4C(=O)C(NC(=O)[C@H](O)c5ccccc5)C4SC3)nn2c1=O` (stereo partly drawn) [Example 6, disodium 7-(D-mandelamido)-3-(2-carboxymethyl-2,3-dihydro-s-triazolo[4,3-b]pyridazin-3-on-6-ylthiomethyl)-3-cephem-4-carboxylylate], the “pH of the aqueous solution” value in series [2] (5% aqueous solution) is given as 5.4.
With `O=C(O)Cn1nc2ccc(SCC3=C(C(=O)[O-])N4C(=O)C(NC(=O)[C@H](O)c5ccccc5)[C@H]4SC3)nn2c1=O.[Na+]` (stereo partly drawn) [Sodium Salt of BB-S488, sodium 7-(D-mandelamido)-3-(2-carboxymethyl-2,3-dihydro-s-triazolo[4,3-b]pyridazin-3-on-6-ylthiomethyl)-3-cephem-4-carboxylate], in [2] (10% aqueous solution), the “pH of the aqueous solution” value came out at 3.6.

The values above are taken from US4112228A, “7-(D-α-Hydroxy-2-arylacetamido)-3-(2-carboxyalkyl-2,3-dihydro-s-tri azolo-[4,3-b]pyridazin-3-on-6-ylthiomethyl)-3-cephem-4-carboxylic acids and derivatives” (priority 1977, dated 1978).
